Experimental data: ChEMBL document CHEMBL3217572, “Preparation and evaluation of BBB-permeable trehalose derivatives as potential therapeutic agents for Huntington's disease” (Medchemcomm, 2013)
pIC50: −log10 of the molar value. Active and inactive are the calls of the source. The calls are words filed in the database; no cut-off is given here.

Key:
Mus musculus [1] = experiment: Neuroprotective activity in R6/2 transgenic mouse assessed as increased locomotory activity at 0.4%, po measured for 20 mins; format: functional, organism-based
Mus musculus [2] = experiment: Neuroprotective activity in R6/2 transgenic mouse assessed as reduction of foot-clasping posture at 0.4%, po measured on week 8; format: functional, organism-based
[3] = target: Huntingtin (Homo sapiens) (UniProt P42858); experiment: Inhibition of N-terminal Htt-exon1-Q103 (unknown origin) transfected in mouse Neuro2a cells assessed as decrease in soluble and insoluble aggregate formation by Western blotting analysis; format: cell-based
Sequence of Huntingtin (Homo sapiens) (P42858 whole entry): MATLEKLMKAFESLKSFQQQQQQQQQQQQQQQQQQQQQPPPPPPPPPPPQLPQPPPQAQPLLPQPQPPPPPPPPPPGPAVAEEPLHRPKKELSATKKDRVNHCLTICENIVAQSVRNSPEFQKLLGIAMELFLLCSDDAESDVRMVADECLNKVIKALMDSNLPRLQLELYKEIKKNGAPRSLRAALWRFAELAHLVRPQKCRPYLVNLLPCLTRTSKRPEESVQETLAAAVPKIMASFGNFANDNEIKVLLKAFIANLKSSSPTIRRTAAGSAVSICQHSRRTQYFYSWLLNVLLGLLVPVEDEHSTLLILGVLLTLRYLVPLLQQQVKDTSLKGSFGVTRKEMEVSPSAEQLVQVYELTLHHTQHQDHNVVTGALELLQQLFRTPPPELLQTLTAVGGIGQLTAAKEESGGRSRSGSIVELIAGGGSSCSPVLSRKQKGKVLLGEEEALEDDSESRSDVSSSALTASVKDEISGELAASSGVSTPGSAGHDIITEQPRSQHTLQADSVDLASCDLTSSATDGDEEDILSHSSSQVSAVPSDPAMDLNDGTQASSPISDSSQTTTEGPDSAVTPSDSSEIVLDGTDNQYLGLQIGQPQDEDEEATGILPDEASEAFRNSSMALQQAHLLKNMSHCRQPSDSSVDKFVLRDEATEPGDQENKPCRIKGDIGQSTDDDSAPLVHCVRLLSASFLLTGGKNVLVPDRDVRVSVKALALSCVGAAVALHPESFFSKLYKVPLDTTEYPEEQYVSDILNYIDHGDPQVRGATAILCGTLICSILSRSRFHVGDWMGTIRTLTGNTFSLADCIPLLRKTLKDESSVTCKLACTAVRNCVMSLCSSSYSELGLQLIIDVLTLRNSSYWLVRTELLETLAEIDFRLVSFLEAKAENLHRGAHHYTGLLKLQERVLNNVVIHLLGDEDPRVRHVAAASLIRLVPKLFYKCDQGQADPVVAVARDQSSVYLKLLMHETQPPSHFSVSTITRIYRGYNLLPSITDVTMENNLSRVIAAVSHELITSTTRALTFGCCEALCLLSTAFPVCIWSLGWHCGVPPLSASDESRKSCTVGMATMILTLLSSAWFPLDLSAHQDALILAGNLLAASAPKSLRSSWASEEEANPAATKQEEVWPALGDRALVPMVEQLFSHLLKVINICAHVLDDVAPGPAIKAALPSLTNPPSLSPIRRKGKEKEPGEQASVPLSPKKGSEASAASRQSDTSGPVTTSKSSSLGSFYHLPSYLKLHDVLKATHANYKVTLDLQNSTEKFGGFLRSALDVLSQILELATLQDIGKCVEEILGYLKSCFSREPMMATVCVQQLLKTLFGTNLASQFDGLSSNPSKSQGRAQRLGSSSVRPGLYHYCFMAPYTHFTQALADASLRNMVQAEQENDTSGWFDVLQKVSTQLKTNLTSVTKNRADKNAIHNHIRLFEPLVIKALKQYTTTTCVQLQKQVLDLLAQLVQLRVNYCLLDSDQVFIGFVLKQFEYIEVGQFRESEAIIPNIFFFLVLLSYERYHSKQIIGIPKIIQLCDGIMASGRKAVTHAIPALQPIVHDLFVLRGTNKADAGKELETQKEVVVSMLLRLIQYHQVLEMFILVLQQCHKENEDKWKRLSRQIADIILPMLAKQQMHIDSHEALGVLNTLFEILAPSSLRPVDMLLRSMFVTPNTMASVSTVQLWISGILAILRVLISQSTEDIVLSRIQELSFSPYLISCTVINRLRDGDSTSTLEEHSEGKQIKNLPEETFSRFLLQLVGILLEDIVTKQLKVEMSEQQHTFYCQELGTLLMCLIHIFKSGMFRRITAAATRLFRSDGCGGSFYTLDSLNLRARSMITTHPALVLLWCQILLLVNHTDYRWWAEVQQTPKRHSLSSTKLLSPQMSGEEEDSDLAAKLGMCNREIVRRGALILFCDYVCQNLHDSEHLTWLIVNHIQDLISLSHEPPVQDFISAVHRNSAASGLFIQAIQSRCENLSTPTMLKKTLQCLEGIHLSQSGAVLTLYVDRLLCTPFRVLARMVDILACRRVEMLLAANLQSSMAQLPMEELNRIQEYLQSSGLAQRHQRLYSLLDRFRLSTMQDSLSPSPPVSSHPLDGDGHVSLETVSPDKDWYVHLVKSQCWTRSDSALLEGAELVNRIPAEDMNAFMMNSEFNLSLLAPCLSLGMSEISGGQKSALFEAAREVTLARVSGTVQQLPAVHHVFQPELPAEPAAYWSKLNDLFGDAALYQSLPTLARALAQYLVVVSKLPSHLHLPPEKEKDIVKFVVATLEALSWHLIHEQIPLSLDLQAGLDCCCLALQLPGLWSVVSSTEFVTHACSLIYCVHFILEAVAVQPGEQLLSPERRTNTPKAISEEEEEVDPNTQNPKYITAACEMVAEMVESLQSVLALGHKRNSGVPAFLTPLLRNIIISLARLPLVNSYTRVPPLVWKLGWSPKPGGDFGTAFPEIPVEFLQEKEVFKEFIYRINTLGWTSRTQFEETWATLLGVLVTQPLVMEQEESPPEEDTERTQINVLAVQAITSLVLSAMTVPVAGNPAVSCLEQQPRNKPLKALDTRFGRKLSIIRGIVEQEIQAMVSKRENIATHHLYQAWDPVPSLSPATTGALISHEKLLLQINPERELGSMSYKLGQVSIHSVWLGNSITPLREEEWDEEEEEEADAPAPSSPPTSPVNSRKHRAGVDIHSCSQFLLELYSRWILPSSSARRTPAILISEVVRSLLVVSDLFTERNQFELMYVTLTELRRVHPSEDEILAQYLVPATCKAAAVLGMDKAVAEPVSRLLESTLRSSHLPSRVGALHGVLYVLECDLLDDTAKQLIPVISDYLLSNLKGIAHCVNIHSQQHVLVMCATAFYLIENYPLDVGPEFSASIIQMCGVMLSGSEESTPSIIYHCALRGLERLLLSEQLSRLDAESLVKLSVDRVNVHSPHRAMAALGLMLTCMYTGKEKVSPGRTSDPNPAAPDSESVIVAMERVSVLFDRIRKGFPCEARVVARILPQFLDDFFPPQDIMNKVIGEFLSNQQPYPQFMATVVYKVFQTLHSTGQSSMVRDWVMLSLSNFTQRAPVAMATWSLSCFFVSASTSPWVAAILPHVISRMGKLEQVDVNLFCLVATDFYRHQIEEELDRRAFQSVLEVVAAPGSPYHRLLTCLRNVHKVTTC

[4] = target: Huntingtin (Homo sapiens) (UniProt P42858); experiment: Inhibition of N-terminal GFP-tagged Htt-exon1-Q103 (unknown origin) transfected in Neuro2a cells assessed as reduction of Htt-Q103 aggregate formation at 100 uM by fluorescence microscopic analysis; format: cell-based
[5] = target: Huntingtin (Homo sapiens) (UniProt P42858); experiment: Inhibition of N-terminal GFP-tagged Htt-exon1-Q103 (unknown origin) transfected in HEK293A cells assessed as reduction of Htt-Q103 aggregate formation by filter trap assay; format: cell-based; settings: HEK293-A
[6] = target: Huntingtin (Homo sapiens) (UniProt P42858); experiment: Inhibition of N-terminal Htt-exon1-Q103 (unknown origin) transfected in HEK293A cells at 50 uM by Western blotting analysis; format: cell-based; settings: HEK293-A
[7] = target: Huntingtin (Homo sapiens) (UniProt P42858); experiment: Inhibition of N-terminal GFP-tagged Htt-exon1-Q103 (unknown origin) transfected in HEK293A cells assessed as reduction of Htt-Q103 aggregate formation at 50 uM after 3 days by fluorescence microscopic analysis; format: cell-based; settings: HEK293-A
RAW264.7 = experiment: Cytotoxicity against mouse RAW264.7 cells by MTT assay; format: cell-based
HeLa [8] = experiment: Cytotoxicity against human HeLa cells by MTT assay; format: cell-based
[9] = Cytotoxicity against african green monkey COS7 cells by MTT assay; format: cell-based; settings: Chlorocebus aethiops, COS-7
Mus musculus [10] = experiment: Neuroprotective activity in wild type mouse assessed as behavioral pattern at 0.4%, po; format: ADME, organism-based; settings: in vivo
[11] = target: Huntingtin (Homo sapiens) (UniProt P42858); experiment: Inhibition of N-terminal GFP-tagged Htt-exon1-Q25 (unknown origin) transfected in HEK293A cells assessed as reduction of Htt-Q103 aggregate formation at 50 uM after 3 days by fluorescence microscopic analysis; format: cell-based; settings: HEK293-A
[12] = Solubility in water; format: physicochemical; settings: buffer
Mus musculus [13] = experiment: Inhibition of mutated aggregate formation in brain homogenate of R6/2 transgenic mouse at 0.4%, po by Hoechst staining-based by immunohistochemistry; format: functional, organism-based
Mus musculus [14] = experiment: Inhibition of mutated huntingtin aggregate formation in liver homogenate of R6/2 transgenic mouse at 0.4%, po after 4 to 8 weeks by Western blotting analysis; format: functional, organism-based
Mus musculus [15] = experiment: Inhibition of mutated huntingtin aggregate formation in brain homogenate of R6/2 transgenic mouse at 0.4%, po by Western blotting analysis; format: functional, organism-based
Mus musculus [16] = experiment: Toxicity in R6/2 transgenic mouse assessed as body weight loss at 0.4%, po measured on week 12; format: organism-based; settings: in vivo
Mus musculus [17] = experiment: Toxicity in R6/2 transgenic mouse assessed as increase in body weight at 0.4%, po measured up to 9 weeks; format: organism-based; settings: in vivo, 1512 h
Mus musculus [18] = experiment: Neuroprotective activity in R6/2 transgenic mouse assessed as increase in mean survival time at 0.4%, po (reference value: 93 days); format: functional
Mus musculus [19] = experiment: Neuroprotective activity in R6/2 transgenic mouse assessed as improved motor coordination and balance at 0.4%, po measured up to 8 weeks by rotarod test; format: functional, organism-based
Brain [20] = experiment: Biodistribution in C57BL/6 mouse brain at 454 mg/kg, po after 24 hrs by fluorescence microscopic analysis; format: ADME, organism-based; parameters: dose 454 mg/kg, route oral; settings: in vivo
Spleen = experiment: Biodistribution in C57BL/6 mouse spleen at 454 mg/kg, po after 24 hrs by fluorescence microscopic analysis; format: ADME, organism-based; parameters: dose 454 mg/kg, route oral; settings: in vivo
Kidney = experiment: Biodistribution in C57BL/6 mouse kidney at 90.9 mg/kg, ip after 60 mins by fluorescence microscopic analysis; format: ADME, organism-based; parameters: dose 90.9 mg/kg, route intraperitoneal; settings: in vivo, 1 h
Brain [21] = experiment: Biodistribution in C57BL/6 mouse brain at 90.9 mg/kg, ip after 60 mins by fluorescence microscopic analysis; format: ADME, organism-based; parameters: dose 90.9 mg/kg, route intraperitoneal; settings: in vivo, 1 h
Mus musculus [22] = experiment: Toxicity in C57BL/6 mouse at 454 mg/kg, po; format: organism-based; parameters: dose 454 mg/kg, route oral; settings: in vivo
Mus musculus [23] = experiment: Toxicity in C57BL/6 mouse at 90.9 mg/kg, ip; format: organism-based; parameters: dose 90.9 mg/kg, route intraperitoneal; settings: in vivo
HeLa [24] = experiment: Cellular uptake in human HeLa cells at 5 to 10 uM after 10 mins by FACS analysis; format: ADME, cell-based
[25] = Cellular uptake in cytoplasm of human HeLa cells at 10 uM after 10 mins by confocal microscopic analysis in presence mitotracker; format: ADME, cell-based
[26] = Cellular uptake in cytoplasm of human HeLa cells at 1 uM up to 1 hr by confocal microscopic analysis; format: ADME, cell-based
[27] = Cellular uptake in nucleus of human HeLa cells at 1 uM up to 1 hr by confocal microscopic analysis; format: ADME, cell-based
[28] = target: Huntingtin (Homo sapiens) (UniProt P42858); experiment: Inhibition of N-terminal GFP-tagged Htt-exon1-Q103 (unknown origin) transfected in HEK293A cells assessed as reduction of Htt-Q103 aggregate formation at 200 uM by filter trap assay; format: cell-based; settings: HEK293-A
Mus musculus [29] = experiment: Inhibition of mutated huntingtin aggregate formation in liver homogenate of R6/2 transgenic mouse at 1%, po after 4 to 8 weeks by Western blotting analysis; format: functional, organism-based
Mus musculus [30] = experiment: Inhibition of mutated aggregate formation in brain homogenate of R6/2 transgenic mouse at 1%, po by Hoechst staining-based by immunohistochemistry; format: functional, organism-based
Mus musculus [31] = experiment: Toxicity in R6/2 transgenic mouse assessed as body weight loss at 1%, po measured on week 12; format: organism-based; settings: in vivo
Mus musculus [32] = experiment: Neuroprotective activity in R6/2 transgenic mouse assessed as increased mean survival time at 1%, po (reference value: 93 days); format: functional

In the case of Cl.N=C(N)NCCCCCC(=O)O[C@@H]1[C@@H](OC(=O)CCCCCNC(=N)N)[C@@H](O[C@H]2O[C@H](CO)[C@@H](OC(=O)CCCCCNC(=N)N)[C@H](OC(=O)CCCCCNC(=N)N)[C@H]2OC(=O)CCCCCNC(=N)N)O[C@H](CO)[C@H]1OC(=O)CCCCCNC(=N)N, the Activity (Mus musculus [1]) was “Active”, the Activity (Mus musculus [2]) was “Active” and the inhibition [3] was “Dose-dependent effect”. The inhibition ([4]; TDE = time-dependent effect) was “tde”, the inhibition [5] was “Dose-dependent effect” and the inhibition [6] was “Active”. The inhibition [7] was “Active”, the pIC50 (RAW264.7) was < 4.00 and the pIC50 (HeLa [8]) was < 4.00. For the same compound, the pIC50 [9] was < 4.00, the Activity (Mus musculus [10]) was “Non-toxic” and the inhibition [11] was “inactive”. The solubility [12] was “soluble”, the inhibition (Mus musculus [13]) was “Active” and the inhibition (Mus musculus [14]) was “Active”. For the same compound, the inhibition (Mus musculus [15]) was “Active”, the Activity (Mus musculus [16]) was 14% and the Activity (Mus musculus [17]) was “Non-toxic”. The MSD (Mus musculus [18]) was 98.5 days and the Activity (Mus musculus [19]) was “Active”.

For Cl.N=C(N)NCCCCCC(=O)O[C@@H]1[C@@H](OC(=O)CCCCCNC(=N)N)[C@@H](O[C@H]2O[C@H](COC(=O)CCCCCNC(=S)Nc3ccc(-c4c5ccc(=O)cc-5oc5cc(O)ccc45)c(C(=O)O)c3)[C@@H](OC(=O)CCCCCNC(=N)N)[C@H](OC(=O)CCCCCNC(=N)N)[C@H]2OC(=O)CCCCCNC(=N)N)O[C@H](COC(=O)CCCCCNC(=S)Nc2ccc(-c3c4ccc(=O)cc-4oc4cc(O)ccc34)c(C(=O)O)c2)[C@H]1OC(=O)CCCCCNC(=N)N, the Drug uptake (Brain [20]) was “Active”, the Drug uptake (Spleen) was “Active” and the Drug uptake (Kidney) was “Active”. The Drug uptake (Brain [21]) was “Active”, the Activity (Mus musculus [22]) was “Non-toxic” and the Activity (Mus musculus [23]) was “Non-toxic”. The Drug uptake (HeLa [24]) was “Active”, the Drug uptake [25] was “Active” and the Drug uptake [26] was “Active”. The Drug uptake [27] was “Active” and the solubility [12] was “soluble”.

For OC[C@H]1O[C@H](O[C@H]2O[C@H](CO)[C@@H](O)[C@H](O)[C@H]2O)[C@H](O)[C@@H](O)[C@@H]1O [TREHALOSE], the inhibition [4] was “inactive”, the inhibition [28] was “inactive” and the inhibition [7] was “inactive”. For the same compound, the inhibition (Mus musculus [29]) was “Active”, the inhibition (Mus musculus [30]) was “Active” and the Activity (Mus musculus [31]) was 25%. The MSD (Mus musculus [32]) was 94.5 days.

With Cl.N=C(N)NCCCCCC(=O)OC[C@H]1O[C@H](O[C@H]2O[C@H](COC(=O)CCCCCNC(=N)N)[C@@H](OC(=O)CCCCCNC(=N)N)[C@H](OC(=O)CCCCCNC(=N)N)[C@H]2OC(=O)CCCCCNC(=N)N)[C@H](OC(=O)CCCCCNC(=N)N)[C@@H](OC(=O)CCCCCNC(=N)N)[C@@H]1OC(=O)CCCCCNC(=N)N the inhibition [7] was “inactive”, the pIC50 (RAW264.7) was > 4.00 and the pIC50 (HeLa [8]) was > 4.00. The pIC50 [9] was > 4.00, the inhibition [11] was “inactive” and the solubility [12] was “soluble”.
